We go through one compound from paper PMC9928189 (ACS catalysis, 2022).

Molecules are shown by their SMILES. Positions count from the first letter of the chain named.

What all share (experiment): X-ray crystal structure
Format in all cases: binding

The target in one assay is T1, MroM-CspL (Mycena rosella, UniProt A0A9X9ZA30).
T1 sequence (A0A9X9ZA30 4-402): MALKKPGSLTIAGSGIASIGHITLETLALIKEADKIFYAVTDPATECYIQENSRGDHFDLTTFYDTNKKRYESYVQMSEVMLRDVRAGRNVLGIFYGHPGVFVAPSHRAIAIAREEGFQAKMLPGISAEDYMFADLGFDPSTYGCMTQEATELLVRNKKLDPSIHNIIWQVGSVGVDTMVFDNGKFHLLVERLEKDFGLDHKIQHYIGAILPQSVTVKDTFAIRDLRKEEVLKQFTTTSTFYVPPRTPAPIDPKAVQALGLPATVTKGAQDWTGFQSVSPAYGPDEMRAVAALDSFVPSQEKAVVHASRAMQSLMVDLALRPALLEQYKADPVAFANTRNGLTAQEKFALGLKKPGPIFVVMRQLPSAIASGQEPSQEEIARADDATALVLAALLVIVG
As to conditions: 1.93 Å; cyclosporin-like core fused and N-methylated.

The target in another assay is T2, MroM-A2 (Mycena rosella, UniProt A0A9X9ZA29).
T2 sequence (A0A9X9ZA29 4-400): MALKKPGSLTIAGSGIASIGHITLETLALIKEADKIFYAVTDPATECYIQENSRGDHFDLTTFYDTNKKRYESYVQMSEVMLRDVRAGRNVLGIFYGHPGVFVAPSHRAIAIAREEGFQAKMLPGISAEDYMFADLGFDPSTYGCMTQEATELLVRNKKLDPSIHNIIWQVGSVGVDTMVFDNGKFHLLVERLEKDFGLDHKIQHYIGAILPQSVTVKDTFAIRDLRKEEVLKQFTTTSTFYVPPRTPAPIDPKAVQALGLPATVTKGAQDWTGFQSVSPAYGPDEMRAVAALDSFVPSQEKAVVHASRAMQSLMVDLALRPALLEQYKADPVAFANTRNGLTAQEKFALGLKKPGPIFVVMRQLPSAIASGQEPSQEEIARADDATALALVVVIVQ
As to conditions: 1.86 Å; core peptide A2 fused and N-methylated.

For another assay, the target named is T3, MroM-A1 (Mycena rosella, UniProt A0A9X9ZA27).
T3 sequence (A0A9X9ZA27 4-400): T2 sequence (A0A9X9ZA29 4-400) with L389F, A390I, L391I, V392I, V393Y, V394I, I395V, V396Q, Q397G
The conditions noted are these: 1.79 Å; core peptide A1 fused and N-methylated.

On to `Nc1ncnc2c1ncn2[C@@H]1O[C@H](CSCC[C@H](N)C(=O)O)[C@@H](O)[C@H]1O` [S-adenosylhomocysteine], for which the X-ray crystal structure entry at MroM-CspL, on MroM-A2 and on MroM-A1 was “Each structure was determined in complex with product S-adenosylhomocysteine (SAH)” each time.
